Data set [1] concerns HAdV5-GFP. In words: microbe, parasite or virus in culture. It counts as cell-based, human adenovirus. The settings on record: for inhibition at 10 µM / IC50: Human adenovirus sp.; for inhibition at 10 µM: read-out: Plaque Assay (10 μM) (%) Inhibition; for IC50: read-out: Plaque Assay IC50; for Selectivity Index (SI): ratio of CC50 to IC50 in plaque assay; for Plaque Assay (10 μM) (%) Inhibition: HAdV5-GFP, low MOI (0.06 vp/cell), 293β5 cell line. On the procedure: Compounds were measured at concentrations of 10 μM and in a dose−response assay ranging from 10 to 0.3 μM using low MOI infections (0.06 vp/cell) in a plaque assay. […] Cells were infected with HAdV5-GFP (0.06 vp/cell) and rocked for 2 h at 37 °C, when cells reached 80%–90% confluency. When the incubation was finished, the inoculum was removed followed by washing the cells once with PBS. […] The compounds were also added to the mixture in concentrations ranging from 10 to 0.3 μM. After incubation for 7 days at 37 °C, we scanned plates with a Typhoon FLA 9000 imager (GE Healthcare Life Sciences, MA, USA) and quantified plaques with ImageJ [47].

A further data set concerns HAdV-5 DNA replication. In words: HAdV DNA quantification by real-time PCR (DNA replication). It counts as cell-based, human adenovirus. The following applies: A549 cells, 24 h, HAdV5 100 vp/cell; 16 at 7.8 μM (10-fold IC50), niclosamide 5 μM; versus DMSO. On the procedure:
All samples were carried out in duplicate. After incubation for 24 h at 37 °C, DNA was purified from the cell lysate with the E.Z.N.A.® Tissue DNA Kit (Omega Bio-tek, Norcross, GA, USA) following the manufacturer’s instructions. TaqMan primers and probes for a common region of the HAdV5 hexon were designed with the GenScript Real-Time PCR (TaqMan) Primer Design software (GenScript, Leiden, Netherlands). Oligonucleotides sequences were: AQ1: 5′-GCCACGGTGGGGTTTCTAAACTT-3′; AQ2: 5′-GCCCCAGTGGTCTTACATGCACAT-3′; Probe: 6-FAM-5′-TGCACCAGACCCGGGCTCAGGTACTCCGA-3′-TAMRA. Real-time PCR mixtures contained 9.5 μL of the purified DNA, AQ1 and AQ2 at a concentration of 200 nM each and Probe at a concentration of 50 nM in a total volume of 25 μL. The PCR cycling protocol was 95 °C for 3 min followed by 40 cycles of 95 °C for 10 s and 60 °C for 30 s. Human glyceraldehyde-3-phosphate dehydrogenase (GAPDH) gene was applied as internal control. Oligonucleotides sequences for GAPDH and conditions were previously reported by Rivera et al..
For quantification, gene fragments from hexon and GAPDH were cloned into the pGEM-T Easy vector (Promega, MA, USA), and known concentrations of template were used to produce a standard curve in parallel for each experiment. All assays were done in thermal cycler LightCycler® 96 System (Roche, Basel, Switzerland).

A further data set relates to wild-type HAdV5. In words: Virus yield reduction (virus burst assay). The settings on record: A549 cells, HAdV 100 vp/cell, 48 h; niclosamide 5 μM, 16 at 10-fold IC50; versus DMSO. It counts as cell-based, human adenovirus. On the procedure:
After 48 h, cells were harvested and subjected to three rounds of freeze/thaw. Serial dilutions of clarified lysates were titrated on A549 cells (3 × 10^4 cells/well), and we calculated TCID50 values using an endpoint dilution method.

A further data set concerns HAdV5. The data set can be described thus: HAdV-mediated endosome disruption (α-sarcin co-delivery assay). It counts as cell-based, human adenovirus. The settings on record: A549 cells, niclosamide 5 μM, independent of virus concentration. How it is done:
A549 cells (~20,000 cells/well) were incubated in DMEM without cysteine or methionine supplemented with 10% dialyzed FBS [DMEM (−)] in black 96-well plates for 1 h before infection. […] The medium was then removed and replaced with 50 μL DMEM (−) containing 0.1 mg/mL α-sarcin (Santa Cruz Biotechnology, Dallas, TX, USA) and the virus and drug mixtures. After 2 h at 37 °C, the Click-iT HPG Alexa Fluor 488 Protein Synthesis Assay Kits (Invitrogen, MA, USA) were used to analyze protein synthesis according to the manufacturer’s instructions. The incorporation of the amino acid analog of methionine L-homopropargylglycine (HPG) containing Alexa Fluor 488 azide was measured using a Typhoon 9410 imager (GE Healthcare Life Sciences, MA, USA) and calculated subtracting the background level of the control well containing L-homopropargylglycine (HPG) and α-sarcin but not virus (100% incorporation).

The test system of a further data set is A549 cells. The settings on record: cited from earlier work.
Data set [2] relates to HAdV5-GFP. The following applies: read-out: IC50 (anti-HAdV); cited from earlier work.
A short description of data set [3]: Cytotoxicity assay (AlamarBlue). The following applies: human, A549 cells, A549 cell line. Type of data set: cell-based. How it is done:
The cytotoxicity of these derivatives was tested by commercial kit AlamarBlue® (Ref. DAL1025, Invitrogen, MA, USA). […] The cytotoxic concentration 50 (CC50) value was obtained by using the statistical package GraphPad Prism. This assay was performed in duplicate.
(Alamar Blue is a resazurin reagent that responds to reducing activity.)

Here are results for 21 compounds from paper PMC7915867, “Discovery of a Small Molecule Inhibitor of Human Adenovirus Capable of Preventing Escape from the Endosome” (International Journal of Molecular Sciences, 2021).

For orientation: inhibition means the share of the control response that was lost under treatment. For orientation: IC50 means the concentration that gives 50% inhibition. What is called CC50 is the concentration giving 50% cytotoxicity.

Each structure is given as a SMILES string. Read-outs that look alike come from different tables or passages of the source.

For the compound `O=C(Nc1ccc([N+](=O)[O-])cc1Cl)c1cc(Cl)ccc1O` [Compound 3, niclosamide, reference compound], in the data set on HAdV5-GFP [1], the inhibition at 10 µM came out at 100% and the IC50 was found to be 0.6 ± 0.05 µM. Also, the “Inhibition of HAdV-5 DNA replication (qPCR)” value in the data set with HAdV-5 DNA replication was “prevented any detectable DNA replication”. For the same compound, in the data set on wild-type HAdV5, the “Virus Yield Reduction” value was found to be 82 ± 35 fold. Moreover, in the data set with HAdV5, the “HPG incorporation compared to control without α-sarcin” value was “under 50%”.
`O=C(Nc1cc(F)cc(C(F)(F)F)c1)c1cc(Cl)ccc1O` [Compound 4]: the CC50 with A549 cells was 120 µM. Besides, in the data set with HAdV5-GFP [2], the IC50 was 0.18 µM.
For `CC1(Nc2ccc(NC(=O)c3cc(Cl)ccc3O)c(Cl)c2)CCCC1` [Compound 5], in the data set with A549 cells, the cytotoxic concentration (CC50) was 157 µM. In addition, in the data set on HAdV5-GFP [2], the IC50 was 0.27 µM.
`CC(C)C(NC(=O)c1cc(Cl)ccc1O)C(=O)Nc1ccc([N+](=O)[O-])cc1Cl` (stereo not drawn) [Compound 6]: the CC50 with A549 cells was 200 µM. Also, the IC50 in the data set with HAdV5-GFP [2] is 0.45 µM.
On to `O=C(NC1CCCC1)c1cc(Cl)ccc1O` [Compound 11, 5-Chloro-N-cyclopentyl-2-hydroxybenzamide], for which, in the data set with HAdV5-GFP [1], the inhibition at 10 µM was determined as 22.6 ± 7.4%.
`O=C(NC1CCCCC1)c1cc(Cl)ccc1O` [Compound 12, 5-Chloro-N-cyclohexyl-2-hydroxybenzamide]: the inhibition at 10 µM in the data set with HAdV5-GFP [1] is 57.6 ± 0.2%.
With `O=C(NC1CCCCCC1)c1cc(Cl)ccc1O` [Compound 13, 5-Chloro-N-cycloheptyl-2-hydroxybenzamide], in the data set with HAdV5-GFP [1], the inhibition at 10 µM is 99.6 ± 0.2%, the concentration for half-maximal inhibition (IC50) came to 4.7 ± 0.1 µM and the “Selectivity Index (SI)” value is listed as 6.6. Besides, the CC50 at 48 h in data set [3] was 30.9 ± 6.3 µM.
Consider `O=C(NC1CCOCC1)c1cc(Cl)ccc1O` [Compound 14, 5-Chloro-2-hydroxy-N-(tetrahydro-2H-pyran-4-yl)benzamide], for which, in the data set on HAdV5-GFP [1], the “Plaque Assay (10 μM) (%) Inhibition” value was “completely inactive” and the inhibition at 10 µM is 0%.
In the case of `CC(C)(C)OC(=O)N1CCC(NC(=O)c2cc(Cl)ccc2O)CC1` [Compound 15, tert-Butyl 4-(5-chloro-2-hydroxybenzamido)piperidine-1-carboxylate], the inhibition at 10 µM with HAdV5-GFP [1] was 52.2 ± 7.1%.
As to `C[C@H](NC(=O)c1cc(Cl)ccc1O)C1CCCCC1` [Compound 17, (S)-5-Chloro-N-(1-cyclohexylethyl)-2-hydroxybenzamide], in the data set with HAdV5-GFP [1], the inhibition at 10 µM is 100%, the IC50 turned out to be 0.51 ± 0.14 µM and the “Selectivity Index (SI)” value amounted to 45.1. This compound showed a CC50 at 48 h in data set [3] of 23 ± 1.3 µM.
Regarding `O=C(NCC1CCOCC1)c1cc(Cl)ccc1O` [Compound 18, 5-Chloro-2-hydroxy-N-((tetrahydro-2H-pyran-4-yl)methyl)benzamide], in the data set with HAdV5-GFP [1], the “Plaque Assay (10 μM) (%) Inhibition” value is “no anti-HAdV activity” and the inhibition at 10 µM is 0%.
On to `CC(C)(C)OC(=O)N1CCC(CNC(=O)c2cc(Cl)ccc2O)CC1` [Compound 19, tert-Butyl 4-((5-chloro-2-hydroxybenzamido)methyl)piperidine-1-carboxylate], for which the inhibition at 10 µM in the data set with HAdV5-GFP [1] stood at 88.5 ± 1.9%.
As to `O=C(NCCC1CCCCC1)c1cc(Cl)ccc1O` [Compound 20, 5-Chloro-N-(2-cyclohexylethyl)-2-hydroxybenzamide], in the data set with HAdV5-GFP [1], the inhibition at 10 µM worked out at 97.8 ± 1.7%, the IC50 was 1 ± 0.1 µM and the “Selectivity Index (SI)” value is 64.3. In data set [3], the midpoint of cytotoxicity, the CC50 at 48 h, lay at 66.3 ± 7.9 µM.
`CC(C)(C)OC(=O)N1CCN(CCNC(=O)c2cc(Cl)ccc2O)CC1` [Compound 21, tert-Butyl 4-(2-(5-chloro-2-hydroxybenzamido)ethyl)piperazine-1-carboxylate]: in the data set on HAdV5-GFP [1], the “Plaque Assay (10 μM) (%) Inhibition” value was “neither piperazine analogue (21 and 22) nor the morpholine analogue 23 showed meaningful inhibitory activity”; the inhibition at 10 µM is 22.2 ± 13.2%.
Consider `CN1CCN(CCNC(=O)c2cc(Cl)ccc2O)CC1` [Compound 22, 5-Chloro-2-hydroxy-N-(2-(4-methylpiperazin-1-yl)ethyl)benzamide], for which, in the data set with HAdV5-GFP [1], the “Plaque Assay (10 μM) (%) Inhibition” value is “neither piperazine analogue (21 and 22) nor the morpholine analogue 23 showed meaningful inhibitory activity”; the inhibition at 10 µM amounted to 0%.
Take `O=C(NCCN1CCOCC1)c1cc(Cl)ccc1O` [Compound 23, 5-Chloro-2-hydroxy-N-(2-morpholinoethyl)benzamide]: in the data set on HAdV5-GFP [1], the “Plaque Assay (10 μM) (%) Inhibition” value is “neither piperazine analogue (21 and 22) nor the morpholine analogue 23 showed meaningful inhibitory activity”; the inhibition at 10 µM is 0%.
Take `CCCCCCNC(=O)c1cc(Cl)ccc1O` [Compound 24, 5-Chloro-N-hexyl-2-hydroxybenzamide]: in the data set on HAdV5-GFP [1], the inhibition at 10 µM is 98.5 ± 2.1%, the IC50 is 3.73 ± 0.64 µM and the “Selectivity Index (SI)” value came out at 6.4. Half-maximal cytotoxicity in data set [3] (CC50 at 48 h) was put at 23.8 ± 3.1 µM.
With `CC(C)(C)OC(=O)NCCCCNC(=O)c1cc(Cl)ccc1O` [Compound 25, tert-Butyl (4-(5-chloro-2-hydroxybenzamido)butyl)carbamate], the inhibition at 10 µM in the data set with HAdV5-GFP [1] was 74 ± 5.7%.
`O=C(c1cc(Cl)ccc1O)N1CCCCC1` [Compound 26, (5-Chloro-2-hydroxyphenyl)(piperidin-1-yl)methanone]: the inhibition at 10 µM with HAdV5-GFP [1] was found to be 0%.
Take `CC(=O)N1CCN(C(=O)c2cc(Cl)ccc2O)CC1` [Compound 27, 1-(4-(5-Chloro-2-hydroxybenzoyl)piperazin-1-yl)ethanone]: the inhibition at 10 µM with HAdV5-GFP [1] is 0%.
Turning to `CN1CCN(C(=O)c2cc(Cl)ccc2O)CC1` [Compound 28, (5-Chloro-2-hydroxyphenyl)(4-methylpiperazin-1-yl)methanone], the inhibition at 10 µM with HAdV5-GFP [1] is 0%.
